# According to patent US9708305B2, “Substituted 1,2,3,4-tetrahydroisoquinoline derivatives for the treatment of hormone-dependent diseases” (UNIVERSITÉ LAVAL, priority 2013, dated 2017):
# Key:
# MCF-7 (ER+) cells = assay: Proliferative (estrogenic) activity on MCF-7 (ER+) cells; assay type: cell-based; settings: 7 days; for proliferation of MCF-7 (ER+) cells: 1 μM, control 100%
# Method: The next step was to determine the presence or absence of estrogenic activity. To do so, cell proliferative assays were carried out on MCF-7 cells. […] Phenols of the corresponding sulfamate library 3-EO and 4-EO are referred to as library 3′-EO and library 4′-EO, respectively.
# This cell assay was carried out according to a procedure previously described to determine the estrogenic activity of enzyme inhibitors on the growth of estrogen-sensitive MCF-7 cells.^77 All chemicals tested were first dissolved in DMSO and subsequent dilutions were done in the proper cell culture media. The final concentration of DMSO in the culture medium was 0.1% or less. 3-(4,5-dimethylthiazol-2-yl)-5-(3-carboxymethoxyphenyl)-2-(4-sulfophenyl)-2-H-tetrazolium (MTS) was used as an indirect colorimetric measurement of cell proliferation according to the manufacturer's instructions (Promega, Madison, Wis.). At the end of the treatments, 20 μL of MTS solution was added to each well (100 μL) and the MCF-7 cells were incubated 4 h at 37° C. The absorbance at 490 nm was then measured with a Thermo max microplate reader (Molecular Devices, Sunnyvale, Calif.). The control (culture media+DMSO) is set to 100% of cell proliferation.
# Saos-2 (ER+) cells = assay: Proliferative activity on Saos-2 (ER+) cells, phenol library; assay type: cell-based; settings: 1 μM (stated for reference compounds); 7 days; control 100%
# Method: Estrogens are known to have a beneficial effect on bones. […] The phenol derivatives 3′-EO-09 to 3′-EO-11 and 3′-EO-14 to 3′-EO-17 were tested on the osteoblast-like cell line Saos-2 to further evaluate their SERM capacity (FIG. 13A).
# The osteoblast-like Saos-2 cells were maintained in culture flasks (175 cm^2 growth area, BD Falcon) at 37° C. in a 5% CO2 humidified atmosphere and grown in McCoy's 5A medium supplemented with 10% fetal bovine serum (FBS), penicillin (100 IU/mL) and streptomycin (100 μg/mL). Penicillin/streptomycin mix, L-Glutamine, normal and charcoal-stripped FBS were purchased from Wisent, Inc. (St-Bruno, QC, Canada), phenol-red free McCoy's 5A was purchased from PromoCell (Heidelberg, Germany). Chemicals tested were first dissolved in DMSO and subsequent dilutions were done in the cell culture medium. The final concentration of DMSO in the culture medium was 0.1% or less. For the proliferation assay, the […] FBS in the culture medium was replaced with 10% charcoal-stripped FBS. The cells were seeded in 96-well plates at a density of 10 000 cells/well and allowed to attach 24 h. After 24 h, the phenolic compounds diluted in culture medium were added to the wells and replaced every 2 days for 7 days of treatment. As reported above, MTS was used as an indirect colorimetric measurement of cell proliferation according to the manufacturer's instructions, except the plate were incubated 2 h instead of 4 h.
# [1] = system: alkaline phosphatase activity in Saos-2 cells; assay: Alkaline phosphatase assay (Saos-2 cells), phenol library; assay type: cell-based; settings: 1 nM; control (no treatment) fixed at 100%
# Method: We also investigated the effect of selected phenol derivatives on alkaline phosphatase activity in Saos-2 cells (FIG. 13B).
# Saos-2 cells were used similarly as reported in the cell proliferation assay. The cells were seeded at a density of 2 000 cells/well and treated for 3 days with each compound to be tested. The alkaline phosphatase (ALP) activity was measured using the Sensolyte® pNPP Alkaline Phosphatase Assay Kit *Colorimetric* (AnaSpec, Freemont, Calif.) following the manufacturer's protocol. Briefly, after three days of treatment, the cells were washed twice with washing buffer (provided with the kit) and lysed with 0.2% Triton X-100. The cell lysates were centrifuged and the supernatants were used to determine ALP activity. The supernatants were deposed in a 96-well plate and incubated for 30 minutes with a p-nitrophenyl phosphate solution (provided with the kit). The absorbance at 405 nm was measured with a Thermo max microplate reader (Molecular Devices, Sunnyvale, Calif.). The control (culture media+DMSO) is set to 100% of alkaline phosphatase activity.
# [2] = system: uterus weight of ovariectomized mice (OVX); settings: cited from earlier work
# [3] = system: AR+ tissues (prostate and seminal vesicles); settings: cited from earlier work
# steroid sulfatase (STS) = molecular target: T1, steroid sulfatase (STS) (Homo sapiens, UniProt P08842); assay: Steroid sulfatase (STS) inhibition, [3H]-E1S to [3H]-E1, homogenate of transfected HEK-293 cells; assay type: biochemical; settings: transformation of E1S into E1 in homogenate of HEK-293 cells transfected with STS; read-out: Steroid Sulfatase Inhibition IC50
# T1 construct: expressed in transfected cells; host or cells: HEK-293 cells stably transfected with STS (G418 selection), obtained from Dr. Van Luu-The; used as freeze-thaw homogenate
# T1 sequence (P08842 22-583): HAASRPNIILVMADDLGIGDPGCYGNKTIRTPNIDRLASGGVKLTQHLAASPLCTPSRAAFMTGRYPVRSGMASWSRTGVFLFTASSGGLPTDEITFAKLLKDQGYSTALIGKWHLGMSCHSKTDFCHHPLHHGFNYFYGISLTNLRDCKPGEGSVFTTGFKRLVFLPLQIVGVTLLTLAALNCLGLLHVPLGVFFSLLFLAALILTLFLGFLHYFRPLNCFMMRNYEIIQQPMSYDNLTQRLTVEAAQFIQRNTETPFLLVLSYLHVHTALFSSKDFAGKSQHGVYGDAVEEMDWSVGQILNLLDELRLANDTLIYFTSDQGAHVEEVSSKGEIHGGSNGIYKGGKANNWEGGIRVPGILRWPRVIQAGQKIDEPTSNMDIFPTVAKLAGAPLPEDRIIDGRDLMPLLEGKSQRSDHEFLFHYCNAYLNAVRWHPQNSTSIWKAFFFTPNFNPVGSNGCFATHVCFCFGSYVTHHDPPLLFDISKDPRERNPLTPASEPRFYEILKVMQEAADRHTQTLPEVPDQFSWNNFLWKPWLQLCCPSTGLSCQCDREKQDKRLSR
# Method: To test STS inhibition, we used homogenated HEK-293 cells overexpressing STS and evaluated the capacity of our compounds to inhibit the conversion of [^3H]-E1S into [^3H]-E1. […] This is outlined in FIG. 5.
# An enzymatic assay previously described was used for the inhibition of the transformation of estrone sulfate (E1S) to estrone (E1) by STS.^72 Briefly, the transfected HEK-293 cells were homogenized by repeated (5 times) cycles of freezing (−80° C.) and thawing on ice (4° C.). The homogenates were then incubated for 2 h at 37° C. (shaking water bath) with or without inhibitors (0.01 μM-1 μM) in presence of [^3H]-E1S (9 nM), adjusted to 1 μM with E1S, in a Tris-acetate buffer (pH 7.4) containing 5 mM EDTA and 10% glycerol. After the incubation, 1 mL of xylene was added to each tube and the solutions were then centrifuged at 3000 rpm for 20 min to separate the organic ([^3H]-E1) and aqueous ([^3H]-E1S) phases. Once 500 μL of each phase was added to 10 mL of Biodegradable Counting Scintillant, the radioactivity of samples was recorded using a Wallac 1411 Liquid Scintillation Counter. The percentage of inhibition was determined by comparison with the control (buffer+homogenate+[^3H]-E1S) which was set to 0% of inhibition. IC50 value was obtained using GraphPad Prism 5 (GraphPad Software, La Jolla, Calif.).
# [4] = system: osteoblast-like Saos-2 cells; assay: Saos-2 cell proliferation, MTS; assay type: cell-based; settings: for Bone cells Saos-2 (ER+) SERM effect Proliferative activity (%): in percentage of control (100%; 0.1 nM of estradiol)
# From the text: First, we wanted to evaluate their effect on cell proliferation. […] This is outlined in FIG. 8A. […] One of the main roles of osteoblasts in bone tissue is to construct a calcified extracellular matrix.^15 As such, bone formation is not principally due to osteoblasts proliferation but rather osteoblasts maturation into mature osteocytes. […] This is outlined in FIG. 8B.
# (§1) CellTitter 96® Aqueous One Solution Cell Proliferation Assay was used as an indirect colorimetric measurement of cell proliferation according to the manufacturer's instructions. Briefly, after the treatments, 20 μL of MTS solution was added to each well (100 μL) of the plates and incubated at 37° C. for 2 h (Saos-2) or 4 h (T-47D). The absorbance at 490 nm was then measured with a Thermo max microplate reader (Molecular Devices, Sunnyvale, Calif.). The control (culture media+DMSO) is set to 100% of cell proliferation.
# Saos-2 cells were suspended in phenol-red free McCoy's 5A medium supplemented with 10% charcoal-stripped FBS, penicillin (100 IU/mL) and streptomycin (100 μg/mL). The cells were seeded in 96-well plates at a density of 3 000 cells/well and allowed to attach. After 24 h, the inhibitors and the reference compounds diluted in fresh culture media were added to the wells and replaced every 2 days for 7 days of treatment.
# T-47D cells [5] = assay: T-47D cell proliferation in presence of E2 (antiestrogenicity); assay type: cell-based
# Method: as §1
# (§2) The cells were plated in 96-well plates at a density of 3 000 cells/well and allowed to attach for 48 h. After this pre-incubation, the inhibitors and the reference compounds diluted in fresh culture media were added to the wells and replaced every 2 days for 7 days of treatment.
# T-47D cells [6] = assay: T-47D cell proliferation (estrogenicity / cytotoxicity), MTS; assay type: cell-based
# Method: The library of phenolic compounds described above was tested on estrogen-sensitive breast cancer T-47D cells.
# In Table 1, cell proliferation of control cells is set to 100%. Results are expressed as mean±SD of one experiment in triplicate.
# as §1, §2
# [7] = system: alkaline phosphatase (ALP) activity in Saos-2 cells; assay: Alkaline phosphatase (ALP) activity in Saos-2 cells; assay type: cell-based
# Method: ALP is an enzyme that releases inorganic phosphate from different intracellular substrates such as pyrophosphate and pyridoxal 5′-phosphate.^63 The inorganic phosphate is used in the formation of hydroxyapatite crystals which are then inserted in the extracellular protein scaffold to form the solid part of bone tissue.
# Saos-2 cells were treated similarly as reported in the cell proliferation assay. The cells were seeded at a density of 2 000 cells/well and were treated with the inhibitors and the reference compounds for 3 days. The alkaline phosphatase (ALP) activity was measured using Sensolyte® pNPP Alkaline Phosphatase Assay Kit *Colorimetric* (AnaSpec, Fremont, Calif.) following the manufacturer's protocol. Briefly, after the 3 days of treatment, the cells were washed twice with washing buffer (provided with the kit) and lysed with 0.2% Triton X-100. The cell lysates were centrifuged and the supernatants were used to determine the ALP activity. The supernatants were deposed in a 96-well plate and incubated 30 min with a p-nitrophenyl phosphate solution (provided with the kit). The absorbance at 405 nm was measured with a Thermo max microplate reader (Molecular Devices, Sunnyvale, Calif.). The control (culture media+DMSO) is set to 100% of alkaline phosphatase activity.
# [8] = 1 μM, in % of control (100%; 0.1 nM of estradiol)
smiles,measurement,setting,value
O=C(c1ccc(CN(CCO)Cc2ccccc2)cc1)N1CCc2ccc(O)cc2C1 [3′-EO-02],proliferation of MCF-7 (ER+) cells,MCF-7 (ER+) cells,135%
CN(C)CCCN(Cc1ccccc1)Cc1ccc(C(=O)N2CCc3ccc(O)cc3C2)cc1 [3′-EO-05],proliferation of MCF-7 (ER+) cells,MCF-7 (ER+) cells,126%
O=C(c1ccc(CN(Cc2ccccc2)Cc2ccco2)cc1)N1CCc2ccc(O)cc2C1 [3′-EO-11],stimulation of MCF-7 cell growth,"MCF-7 (ER+) cells; 0.01 μM, 0.1 μM and 1 μM",did not stimulate
CCN(Cc1ccc(C(=O)N2CCc3ccc(O)cc3C2)cc1)Cc1cccc(Br)c1 [3′-EO-12],proliferation of MCF-7 (ER+) cells,MCF-7 (ER+) cells,118%
CCN(Cc1ccc(Br)cc1)Cc1ccc(C(=O)N2CCc3ccc(O)cc3C2)cc1 [3′-EO-13],proliferation of MCF-7 (ER+) cells,MCF-7 (ER+) cells,177%
CCN(Cc1ccc(C(=O)N2CCc3ccc(O)cc3C2)cc1)Cc1ccccn1 [3′-EO-14],proliferation of Saos-2 cells,Saos-2 (ER+) cells,140%
same,ALP activity in Saos-2 cells,[1],147%
CCN(Cc1ccc(F)cc1)Cc1ccc(C(=O)N2CCc3ccc(O)cc3C2)cc1 [3′-EO-17],ALP activity in Saos-2 cells,[1],152%
"COc1cc2c(cc1OS(N)(=O)=O)CC[C@@H]1[C@@H]2CC[C@@]2(C)[C@H]1CC[C@@]2(O)Cc1ccccc1 [EM-1913, 3-O-sulfamate 17α-benzyl-2-methoxy-estra-1,3,5(10)-trien-17β-ol]",estrogenic activity: uterus weight of OVX mice,[2]; compound alone,did not stimulate the uterus weight
same,stimulation of uterine weight induced by E1S in OVX mice,[2]; with E1S,effectively blocked
same,androgenic effect in the absence of DHEAS,[3]; injected in the absence of DHEAS,No more harmful androgenic effect was detected
same,effect of DHEAS on the weight of AR+ tissues (prostate and seminal vesicles),[3]; with DHEAS,block the effect of DHEAS
"Cl.O=C(c1ccc(OCCN2CCCCC2)cc1)c1c(-c2ccc(O)cc2)sc2cc(O)ccc12 [raloxifene, Raloxifene hydrochloride, reference compound]",proliferation of Saos-2 cells,Saos-2 (ER+) cells,123%
same,IC50,steroid sulfatase (STS),> 1000 nM
same,"Saos-2 cell proliferation, dose response","[4]; 1 nM to 1 μM, 7 days",apparent dose-dependent response
same,Bone cells Saos-2 (ER+) SERM effect Proliferative activity (%),[4]; 0.1 μM,75%
same,Bone cells Saos-2 (ER+) SERM effect Proliferative activity (%),[4]; 1 μM,83%
same,block of E2 stimulation of T-47D proliferation,"T-47D cells [5]; 0.01 μM to 1 μM, E2 0.1 nM",able to block the E2 stimulation
same,Breast cancer cells T-47D (ER+) Antagonist activity (%),T-47D cells [5]; [8],96%
same,cytotoxicity on T-47D cells in presence of E2,"T-47D cells [5]; 5 μM, E2 0.1 nM",some cytotoxicity
same,estrogenic activity on T-47D cells,"T-47D cells [6]; 0.01 μM to 5 μM, 7 days",no estrogenic activity
same,Breast cancer cells T-47D (ER+) Agonist activity (%),T-47D cells [6]; [8],0%
same,cytotoxicity on T-47D cells,T-47D cells [6]; 5 μM,induced some cytotoxicity
same,Bone cells Saos-2 (ER+) SERM effect Alkaline phosphatase activity (%),[7]; 0.1 nM,86%
same,"stimulation of ALP activity in presence of ICI-164,384 or MPP + PHTPP","[7]; 0.1 nM compound, antagonists 1 μM, 3 days",completely blocked the stimulation
"CC/C(=C(\c1ccccc1)c1ccc(OCCN(C)C)cc1)c1ccccc1 [tamoxifen, reference compound]",ALP activity in Saos-2 cells,[1],143%
